Source: patent publication US11377442B2, “Small molecule agonists and antagonists of NR2F6 activity” (ZANDER THERAPEUTICS, INC., priority 2016, dated 2022)
Where “and” joins values, the source holds several entries; their conditions need not be identical. Equal values may be shown once. Read-outs that look alike come from different tables or passages of the source.

Assays:
Type in all cases: cell-based
Renilla [1] = assay: Renilla signal, LBD, cmpd/DMSO (NR2F6 LBD transfected cells)
NR2F6 LBD = target: T1, NR2F6 LBD (Homo sapiens, UniProt P10588); assay: NR2F6 LBD transient transfection
T1 construct: expressed in transfected cells
T1 sequence (P10588 165-393 limits assumed): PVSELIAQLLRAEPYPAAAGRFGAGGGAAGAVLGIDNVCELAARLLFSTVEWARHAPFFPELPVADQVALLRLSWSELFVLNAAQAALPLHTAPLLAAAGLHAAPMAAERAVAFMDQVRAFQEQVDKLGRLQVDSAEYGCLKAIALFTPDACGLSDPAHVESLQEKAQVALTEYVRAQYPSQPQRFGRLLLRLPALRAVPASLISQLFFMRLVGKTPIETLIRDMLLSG
Procedure, shortened: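 LBD-transfected cells treated at 40, 10, 2 and 0.5 μM (4 replicates); cytotoxicity measured in parallel, normalized to DMSO (0%) and zero signal (100%). Higher concentrations excluded where signal loss reflected toxicity.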

NR2F6 = target: T2, NR2F6 (Homo sapiens, UniProt P10588); assay: NR2F6 agonist screening, Firefly signal cmpd/DMSO
T2 construct: expressed in transfected cells; also transient transfection
T2 sequence (P10588 1-404): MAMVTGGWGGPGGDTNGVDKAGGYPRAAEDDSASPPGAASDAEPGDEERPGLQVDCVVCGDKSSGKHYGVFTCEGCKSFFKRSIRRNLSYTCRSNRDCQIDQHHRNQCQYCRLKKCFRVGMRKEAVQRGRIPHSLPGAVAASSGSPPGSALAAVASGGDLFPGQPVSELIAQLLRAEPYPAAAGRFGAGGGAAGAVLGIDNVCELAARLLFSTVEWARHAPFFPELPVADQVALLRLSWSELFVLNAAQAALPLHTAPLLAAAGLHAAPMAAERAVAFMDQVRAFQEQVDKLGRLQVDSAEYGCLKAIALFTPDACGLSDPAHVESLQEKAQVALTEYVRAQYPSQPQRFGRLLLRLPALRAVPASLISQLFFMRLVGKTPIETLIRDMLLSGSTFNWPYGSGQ

Renilla [2] = assay: Renilla signal in NR2F6 agonist screening, cmpd/DMSO; details: Renilla
HEK293 pGL4 = assay: Firefly_pGL signal, cmpd/DMSO (pGL4 control cells); details: Homo sapiens
[3] = read-out: Renilla F4, cmpd/DMSO (mean)
[4] = F4, read-out: Renilla, F4, cmpd/DMSO (mean)
[5] = F4, 1% FBS, read-out: Renilla, F4, 1% FBS, cmpd/DMSO (mean)
[6] = F4, 10% FBS, read-out: Renilla, F4, 10% FBS, cmpd/DMSO (mean)

Firefly LBD, cmpd/DMSO (mean) (NR2F6 LBD; 0.5 uM): 1.3 | Firefly LBD, cmpd/DMSO (mean) (NR2F6 LBD; 0.5 uM, LBD): 1.3 | Firefly LBD, cmpd/DMSO (mean) (NR2F6 LBD; 2 uM): 2.9 | Firefly LBD, cmpd/DMSO (mean) (NR2F6 LBD; 2 uM, LBD): 1.7 | Firefly LBD, cmpd/DMSO (mean) (NR2F6 LBD; 10 uM): 1.2 | Firefly LBD, cmpd/DMSO (mean) (NR2F6 LBD; 10 uM, LBD): 3.3 | Firefly LBD, cmpd/DMSO (mean) (NR2F6 LBD; 40 uM): 0.2 | Firefly LBD, cmpd/DMSO (mean) (NR2F6 LBD; 40 uM, LBD): 0.6 | Firefly F4, cmpd/DMSO (mean) (NR2F6; 0.5 uM): 2.1 | Firefly F4, cmpd/DMSO (mean) (NR2F6; 0.5 uM, F4): 1.7 | Firefly F4, cmpd/DMSO (mean) (NR2F6; 2 uM): 4.5 | Firefly F4, cmpd/DMSO (mean) (NR2F6; 2 uM, F4): 2.4 | Firefly F4, cmpd/DMSO (mean) (NR2F6; 10 uM): 4.3 | Firefly F4, cmpd/DMSO (mean) (NR2F6; 10 uM, F4): 6.2 | Firefly F4, cmpd/DMSO (mean) (NR2F6; 40 uM): 1.0 | Firefly F4, cmpd/DMSO (mean) (NR2F6; 40 uM, F4): 0.8 | F4, Firefly/Renilla for S/B(F4) > 3 (NR2F6; 1% FBS, 10 uM): 3.5 and 2.6 | F4, Firefly/Renilla for S/B(F4) > 3 (NR2F6; 10% FBS, 10 uM): 4.5 and 4.9 | Firefly, F4/pGL4 for S/B(F4) > 3 (NR2F6; 10% FBS, 10 uM): 4.2 and 4.3 | Firefly, F4, 1% FBS, cmpd/DMSO (mean) (NR2F6; F4, 1% FBS, 0.5 uM): 0.9 | Firefly, F4, 1% FBS, cmpd/DMSO (mean) (NR2F6; F4, 1% FBS, 2 uM): 1.9 and 1.6 | Firefly, F4, 1% FBS, cmpd/DMSO (mean) (NR2F6; F4, 1% FBS, 10 uM): 8.5 and 5.1 | Firefly, F4, 1% FBS, cmpd/DMSO (mean) (NR2F6; F4, 1% FBS, 40 uM): 0.7 and 0.4 | Firefly, F4, 10% FBS, cmpd/DMSO (mean) (NR2F6; F4, 10% FBS, 0.5 uM): 0.8 and 1.3 | Firefly, F4, 10% FBS, cmpd/DMSO (mean) (NR2F6; F4, 10% FBS, 2 uM): 1.4 and 1.5 | Firefly, F4, 10% FBS, cmpd/DMSO (mean) (NR2F6; F4, 10% FBS, 10 uM): 11 and 13 | Firefly, F4, 10% FBS, cmpd/DMSO (mean) (NR2F6; F4, 10% FBS, 40 uM): 1.4 and 1.0 | Activity, cmpd/DMSO (NR2F6; Table 31): 7.1
SMILES: O=S1(=O)C[C@H](N2CCCC2)[C@@H](S(=O)(=O)c2cccs2)C1 [Compound D104]
Renilla LBD, cmpd/DMSO (mean) (Renilla [1]; 0.5 uM): 1.1 | Renilla LBD, cmpd/DMSO (mean) (Renilla [1]; 2 uM): 1.1 | Renilla LBD, cmpd/DMSO (mean) (Renilla [1]; 10 uM): 0.6 | Renilla LBD, cmpd/DMSO (mean) (Renilla [1]; 40 uM): 0.2 | fold induction at 0.5 µM (Renilla [2]; [3]): 1.2 | fold induction at 2 µM (Renilla [2]; [3]): 2 | fold induction at 10 µM (Renilla [2]; [3]): 1.7 | fold induction at 40 µM (Renilla [2]; [3]): 0.3 | fold induction at 0.5 µM (Renilla [2]; [4]): 1.1 | fold induction at 2 µM (Renilla [2]; [4]): 1.2 | fold induction at 10 µM (Renilla [2]; [4]): 1.6 | fold induction at 40 µM (Renilla [2]; [4]): 0.3 | fold induction at 0.5 µM (Renilla [2]; [5]): 1.1 | fold induction at 2 µM (Renilla [2]; [5]): 1.4 | fold induction at 10 µM (Renilla [2]; [5]): 2.4 | fold induction at 40 µM (Renilla [2]; [5]): 1 | fold induction at 0.5 µM (Renilla [2]; [6]): 1 | fold induction at 2 µM (Renilla [2]; [6]): 1.3 | fold induction at 10 µM (Renilla [2]; [6]): 2.5 | fold induction at 40 µM (Renilla [2]; [6]): 2.2 | fold induction at 0.5 µM (HEK293 pGL4; HEK293, 0.5 uM, pGL4, read-out: Firefly pGL4, cmpd/DMSO (mean)): 1.3 | fold induction at 0.5 µM (HEK293 pGL4; HEK293, 0.5 uM, read-out: Firefly pGL4, cmpd/DMSO (mean)): 1.2 | fold induction at 2 µM (HEK293 pGL4; HEK293, 2 uM, pGL4, read-out: Firefly pGL4, cmpd/DMSO (mean)): 1.4 | fold induction at 2 µM (HEK293 pGL4; HEK293, 2 uM, read-out: Firefly pGL4, cmpd/DMSO (mean)): 1.8 | fold induction at 10 µM (HEK293 pGL4; HEK293, 10 uM, pGL4, read-out: Firefly pGL4, cmpd/DMSO (mean)): 4 | fold induction at 10 µM (HEK293 pGL4; HEK293, 10 uM, read-out: Firefly pGL4, cmpd/DMSO (mean)): 2.4 | fold induction at 40 µM (HEK293 pGL4; HEK293, 40 uM, pGL4, read-out: Firefly pGL4, cmpd/DMSO (mean)): 0.7 | fold induction at 40 µM (HEK293 pGL4; HEK293, 40 uM, read-out: Firefly pGL4, cmpd/DMSO (mean)): 0.7 | fold induction at 0.5 µM (HEK293 pGL4; HEK293, pGL4, 1% FBS, 0.5 uM, read-out: Firefly, pGL4, 1% FBS, cmpd/DMSO (mean)): 1 | fold induction at 2 µM (HEK293 pGL4; HEK293, pGL4, 1% FBS, 2 uM, read-out: Firefly, pGL4, 1% FBS, cmpd/DMSO (mean)): 1 | fold induction at 10 µM (HEK293 pGL4; HEK293, pGL4, 1% FBS, 10 uM, read-out: Firefly, pGL4, 1% FBS, cmpd/DMSO (mean)): 1.5 | fold induction at 40 µM (HEK293 pGL4; HEK293, pGL4, 1% FBS, 40 uM, read-out: Firefly, pGL4, 1% FBS, cmpd/DMSO (mean)): 0.6 | fold induction at 0.5 µM (HEK293 pGL4; HEK293, pGL4, 10% FBS, 0.5 uM, read-out: Firefly, pGL4, 10% FBS, cmpd/DMSO (mean)): 1.1 | fold induction at 2 µM (HEK293 pGL4; HEK293, pGL4, 10% FBS, 2 uM, read-out: Firefly, pGL4, 10% FBS, cmpd/DMSO (mean)): 1.7 | fold induction at 10 µM (HEK293 pGL4; HEK293, pGL4, 10% FBS, 10 uM, read-out: Firefly, pGL4, 10% FBS, cmpd/DMSO (mean)): 2.7 | fold induction at 40 µM (HEK293 pGL4; HEK293, pGL4, 10% FBS, 40 uM, read-out: Firefly, pGL4, 10% FBS, cmpd/DMSO (mean)): 0.5
